From patent US6410516B1

Tests used:
[1] = test system: NF-κB; experiment: GTP stimulation of NF-κB complex formation in the binding assay; type: biochemical; conditions: GTP 3 mM added to the binding assay; virus-induced extracts
[2] = test system: endogenous β-IFN mRNA; experiment: Northern blot, endogenous β-IFN mRNA in 70Z/3 cells; type: cell-based, mouse; conditions: PMA 50 ng/ml, LPS 15 μg/ml or Sendai virus, 0 to 20 hr
Procedure: (§1) FIG. 42C presents results of Northern blot analyses of 70Z/3 cells treated with various inducers.
(§2) RNA preparation and Northern blot analysis were carried out as previously described by Zinn et al., Cell, 34, 865-879 (1983).

[3] = test system: endogenous κ gene; experiment: Northern blot, endogenous κ gene expression in 70Z/3 cells; type: cell-based, mouse; conditions: PMA 50 ng/ml, LPS 15 μg/ml or Sendai virus, 0 to 20 hr
Procedure: as §1, §2

[4] = test system: AP-1 in HeLa cells; experiment: TPA stimulation, AP-1 DNA-binding activity in HeLa subcellular fractions; type: cell-based, human
Text: FIG. 28 represents analysis of subcellular fractions for DNA-binding activity of the TPA-inducible transcription factor AP-1. Equal cell-equivalents of nuclear extracts (N) and cytosolic fractions (C) from 70Z/3 and HeLa cells were used in mobility shift assays. AP-1 specific DNA-binding activity was detected using an end-labeled EcoRI-HindIII fragment from the yeast HIS 4 promoter containing three binding sites for GCN4 recognized by mammalian AP-1. The three protein-DNA complexes seen on shorter exposures of the fluorogram are indicated by filled arrowheads and the position of unbound DNA-fragment by an open arrowhead.

[5] = test system: NF-KB in 70Z/3 cells; experiment: TPA stimulation, subcellular fractions of 70Z/3 cells (mobility shift assay); type: cell-based, mouse; conditions: TPA-stimulated cells; fractions treated with formamide and DOC; densitometric scanning
Procedure: Nuclear extracts, cytosolic and postnuclear membrane fractions were analyzed at equal amounts of protein in an electrophoretic mobility shift assay, described in Example 1, followed by fluorography.
To examine whether the form of NF-kB detected after in vitro activation in the cytosolic fraction could quantitatively account for the NF-kB found in nuclear extracts after TPA stimulation of cells, subcellular fractions of 70Z/3 cells were reinvestigated in mobility shift assays after treatment with formamide and DOC using equal cell-equivalents of subcellular fractions. Equal cell-equivalents of nuclear extracts (N) and cytosolic (C) and post-nuclear membrane fractions (P) from control (Co) and TPA-stimulated cells (TPA) were left untreated (lanes 1-6 and 13-18) or subjected to a formamide/desoxycholate treatment (Fa+DOC; lanes 7-12 and 19-24; for conditions see FIG. 31, lane 11). This treatment was preferred over the DOC/NP-40 chase treatment because it gave a higher resolution of bands in mobility shift assays. DNA-binding reactions were performed in the presence of 3.2 ug poly(d[I-C]) using 4.4 ug of protein from nuclear extracts, 8.8 ug of protein from cytosolic fractions or 2.2 ug of protein from postnuclear membrane fractions (all in 4 ul buffer D(+)). Fluorograms of native gels are shown. […]

[6] = test system: HeLa cells; conditions: anisomycin at 10; cited from earlier work
[7] = test system: 70Z/3 cells; conditions: 10 μg/mo cycloheximide; cited from earlier work

Nc1nc2c(ncn2[C@@H]2O[C@H](COP(=O)(O)OP(=O)(O)OP(=O)(O)O)[C@@H](O)[C@H]2O)c(=O)[nH]1 [GTP]
NF-κB complex formation [1]: stimulated

CCCCCCCCCCCCCC(=O)O[C@@H]1[C@@H](C)[C@@]2(O)[C@@H](C=C(CO)C[C@]3(O)C(=O)C(C)=C[C@@H]23)[C@@H]2C(C)(C)[C@]12OC(C)=O [PMA, phorbol 12-myristate-13-acetate]
endogenous β-IFN mRNA [2]: not
endogenous κ gene expression [3]: activation of the endogenous κ gene
AP-1 DNA-binding activity in nuclear extracts after TPA-stimulation [4]: did not show an increase
kB-specific DNA-binding activity found in nuclear extracts [5]: 80%

COc1ccc(C[C@H]2NC[C@H](O)[C@H]2OC(C)=O)cc1 [anisomycin]
inhibition of protein synthesis [6]: approximately 99%

C[C@@H]1C[C@@H]([C@H](O)CC2CC(=O)NC(=O)C2)C(=O)[C@@H](C)C1 [cycloheximide]
inhibition of protein synthesis [7]: greater than 95%
